The results in this text go back to paper PMC5603865, “Synthesis, In-Vitro Activity and Metabolic Properties of Quinocetone and Structurally Similar Compounds” (Iranian Journal of Pharmaceutical Research : IJPR, 2017).

Converted amounts (≈) assume the structure as drawn. Some results are limits rather than exact numbers.

For one experiment, the system named is normal human Chang liver cells. The experiment is described as follows: In-vitro cytotoxicity, MTT cell proliferation assay. The note with it: 24 h incubation, concentration reducing viable cells by 50%. In kind it is cell-based. Here is the method: (§1) All test compounds were dissolved in dimethyl sulfoxide (DMSO, Sigma, USA) and then diluted in Dulbecco’s modified Eagle’s medium (DMEM, Gibco, USA) at desired concentrations for cell proliferation analyses or diluted in nutrient broth medium for antimicrobial susceptibility testing respectively. The final concentration of DMSO in the DMEM culture medium was under 0.1% (v:v).
(§2) HepG2 and normal human Chang liver cells were obtained from the Institute of Biochemistry and Cell Biology, Shanghai Institutes for Biological Sciences, Chinese Academy of Sciences (Shanghai, China). HepG2 and normal human Chang liver cells were cultured at 37˚Cwith 5% CO2 in DMEM supplemented with 2% L-glutamine, 10% fetal bovine serum (Gibco, USA), 100 U/mL penicillin and 100 […] (Gibco, USA).
(§3) The methodology for evaluating the cytotoxicity inhibitory activity of various test compounds towards cell proliferation has been described previously ([11], [17]). Cell proliferation inhibitory analyses were carried out using the 3-(4,5-dimethylthiazole-2-yl)-2,5-diphenyl tetrazolium bromide (MTT, Sigma, USA) assay. Briefly, cancers HepG2 and normal human Chang liver cells were harvested and resuspended in fresh growth medium. A 100 μL cell suspension (5 × 10^4 cells/mL) was aliquoted into each well of a 96-well culture plate. After 12 h incubation, the medium was replaced with fresh medium containing various concentrations of test compounds. The cells were then incubated for another 24 h. At the end of exposure, 10 μL of MTT solution (5 mg/mL) was added, and the cells were incubated for 4 h at 37 °C. The cells were treated with 100 μL DMSO, and absorbance was recorded at 570 nm using a microplate ELISA reader (ELX800, Bio-Tek, USA). All experiments were performed at least thrice, and data were presented as the mean of sixplicate wells ± standard deviation (SD). Cell inhibition was calculated as follows:
(§4) (OD of control group − OD of experimental group) / (OD of control group − OD of blank group) ×100%. The IC50 value for a compound was calculated using SPSS.
A general note: Tetrazolium dyes change colour on reduction, which living cells bring about.
In turn, “2-(3-phenyl-2-propenyl) -3-methylquinoxaline [Compound 5a]” yielded an IC50 of 532 ± 7.66 µM.

The experiment is the same for the next values; noted with them: Homo sapiens, Chang liver, 24 h, 24 h incubation, concentration reducing viable cells by 50%.
In the case of `Cc1c(C(=O)/C=C/c2ccc(Cl)cc2)[n+]([O-])c2ccccc2[n+]1[O-]` [Compound 3g], the half-inhibitory concentration (IC50) was determined as 114 ± 4.59 µM.
As for `Cc1nc2ccccc2nc1C(=O)/C=C/c1cccc(O)c1` [Compound 5b], the IC50 came out at 463 ± 9.91 µM.
`Cc1nc2ccccc2nc1C(=O)/C=C/c1ccco1` [Compound 7, 3-methyl-2-(3-fura-2-propenoyl)-quinoxaline] displayed an IC50 of 469 ± 5.26 µM.

Another experiment relates to HepG2 cells. The experiment is described as above. In kind it is cell-based, human. The settings on record: 24 h incubation, concentration reducing viable cells by 50%. As for the experimental part: as §1, §2, §3, §4
The compound `Cc1c(C(=O)/C=C/c2ccc(Cl)cc2)[n+]([O-])c2ccccc2[n+]1[O-]` [Compound 3g] displayed a half-maximal inhibitory concentration (IC50) of 103 ± 4.08 µM.
Still for that read-out and setting: the result for “2-(3-phenyl-2-propenyl) -3-methylquinoxaline [Compound 5a]” reads 451 ± 11.1 µM.

The experiment is the same for the next values; noted with them: Homo sapiens, HepG2, 24 h, 24 h incubation, concentration reducing viable cells by 50%.
In the case of `Cc1c(C(=O)/C=C/c2ccc(Cl)cc2)[n+]([O-])c2ccccc2[n+]1[O-]` [Compound 3g], 102 µM corresponded to half-maximal inhibition (IC50).
`Cc1nc2ccccc2nc1C(=O)/C=C/c1cccc(O)c1` [Compound 5b] showed a half-maximal inhibitory concentration (IC50) of 526 ± 20.9 µM.
`Cc1nc2ccccc2nc1C(=O)/C=C/c1ccco1` [Compound 7, 3-methyl-2-(3-fura-2-propenoyl)-quinoxaline] had a half-maximal inhibitory concentration (IC50) of 441 ± 12.3 µM.

A further experiment concerns Clostridium perfringen CVCC52,8604. Description: In-vitro antibacterial activity, MIC by broth dilution (anaerobic chamber). In kind it is cell-based. The note with it: 24 h. Here is the method:
as §1
(§5) The preliminary antibacterial activities were obtained for selected compounds against various bacteria, namely: Staphyloccocus aureus ATCC25923 (Gram-positive bacteria), Clostridium perfringen CVCC52,8604 (anaerobes bacteria), Salmonella pullorum (Gram-negative bacteria), Escherichia coli ATCC25922 (Gram negative bacteria) and Aeromonas hydrophila (Gram-negative bacteria) were used in the study. Each strain was cultured in appropriate broth medium. Clostridium perfringen was incubated in an anaerobic chamber. The minimum inhibitory concentration (MIC) for each test compound was estimated using the broth dilution method. The MIC’s was determined for each strain/compound pairs that presented antimicrobial activity. The method was modified from Mohapatra›s methods ([14], [15]). Cell suspensions were prepared in 2 mL of liquid medium with concentrations of various tests of compounds in 15 mL culture tubes by inoculation with 100 μL of 10^6 cfu/mL from each stock. The cultures were incubated at 28 °C or 37 °C for 24 h. Tubes showing no visible turbidity represented the MIC, and subsequently, were inoculated on the right side of the 9cm sterile nutrient agar plates without various test compounds and incubated for 24 h (Clostridium perfringen was incubated in an anaerobic chamber.). The least concentration, at which no growth was observed, represented the minimum bactericidal concentration (MBC) ([16]).
On the technique in general: In broth dilution the organism is exposed to a series of concentrations in liquid medium.
“2-(3-phenyl-2-propenyl) -3-methylquinoxaline [Compound 5a]”: the “MIC values Clostridium perfringen” value is over 500 µg/mL.

Still in this experiment, the particulars now being: Clostridium, 24 h.
On to `Cc1c(C(=O)/C=C/c2ccc(Cl)cc2)[n+]([O-])c2ccccc2[n+]1[O-]` [Compound 3g], for which the MIC stood at 435 µg/mL (≈ 1280 µM).
Same read-out and setting: the result for `Cc1nc2ccccc2nc1C(=O)/C=C/c1cccc(O)c1` [Compound 5b] reads over 500 µg/mL; that for `Cc1nc2ccccc2nc1C(=O)/C=C/c1ccco1` [Compound 7, 3-methyl-2-(3-fura-2-propenoyl)-quinoxaline], over 500 µg/mL.

For a further experiment, the system named is Gram-positive and Gram-negative bacteria. The experiment is described as follows: Antibacterial activity class based on the MIC results. In kind it is cell-based.
Conditions: not given
Here is the method:
as §5
In this study, activity of quinoxaline-1, 4-dioxides and their deoxygenations was tested against selected Gram-negative bacteria (Escherichia coli, Salmonella pullorum and Aeromonas hydrophila), Gram-positive bacteria (Staphyloccocus aureus and Clostridium perfringen). The in-vitro antibacterial activity was based on the MIC results: Strong antibacterial activity, if MIC is less than 50 μg/mL; Moderate, if MIC is in between 50 and 250 μg/mL; No activity, if MIC is more than 500 μg/mL.
On to `Cc1c(C(=O)/C=C/c2ccc(Cl)cc2)[n+]([O-])c2ccccc2[n+]1[O-]` [Compound 3g], for which the “antibacterial activity against Gram-positive and Gram-negative bacteria” value is “little or no activity”.

The next experiment deals with Salmonella pullorum. The experiment is described as follows: In-vitro antibacterial activity, MIC by broth dilution. In kind it is cell-based. The note with it: 24 h. As for the experimental part: as §1, §5
As for “2-(3-phenyl-2-propenyl) -3-methylquinoxaline [Compound 5a]”, the “MIC values Salmonella pullorum” value is over 500 µg/mL.

Staying with this experiment, now noted: Salmonella enterica, PULLORUM, 24 h.
Take `Cc1c(C(=O)/C=C/c2ccc(Cl)cc2)[n+]([O-])c2ccccc2[n+]1[O-]` [Compound 3g]: the MIC is over 500 µg/mL.
`Cc1nc2ccccc2nc1C(=O)/C=C/c1cccc(O)c1` [Compound 5b]: the minimal inhibitory concentration (MIC) was over 500 µg/mL.
Still for that read-out and setting: to `Cc1nc2ccccc2nc1C(=O)/C=C/c1ccco1` [Compound 7, 3-methyl-2-(3-fura-2-propenoyl)-quinoxaline] belongs over 500 µg/mL.

In the next experiment the test system is Staphyloccocus aureus ATCC25923. Described as above. In kind it is cell-based. The settings on record: broth dilution, 24 h. Here is the method: as §1, §5
On to “2-(3-phenyl-2-propenyl) -3-methylquinoxaline [Compound 5a]”, for which the “MIC values Staphyloccocus aureus ATCC25923” value was over 500 µg/mL.

Still in this experiment, the particulars now being: broth dilution, 24 h; read-out: MIC values Staphyloccocus aureus ATCC25923.
On to `Cc1c(C(=O)/C=C/c2ccc(Cl)cc2)[n+]([O-])c2ccccc2[n+]1[O-]` [Compound 3g], for which the minimum inhibitory concentration (MIC) was 27.2 µg/mL (≈ 79.8 µM).
For `Cc1nc2ccccc2nc1C(=O)/C=C/c1cccc(O)c1` [Compound 5b], the MIC was over 500 µg/mL.
Consider `Cc1nc2ccccc2nc1C(=O)/C=C/c1ccco1` [Compound 7, 3-methyl-2-(3-fura-2-propenoyl)-quinoxaline], for which the minimum inhibitory concentration (MIC) was over 500 µg/mL.

For the next experiment, the system named is Aeromonas hydrophila. Described as above. Type of experiment: cell-based. The settings on record: Aeromonas hydrophila; broth dilution, 24 h; read-out: MIC values Aeromonas hydrophila. Here is the method: as §1, §5
As to `Cc1c(C(=O)/C=C/c2ccc(Cl)cc2)[n+]([O-])c2ccccc2[n+]1[O-]` [Compound 3g], the MIC was over 500 µg/mL.
For the compound `Cc1nc2ccccc2nc1C(=O)/C=C/c1cccc(O)c1` [Compound 5b], the MIC was found to be 371 µg/mL (≈ 1280 µM).
The same measure, in the same setting: to `Cc1nc2ccccc2nc1C(=O)/C=C/c1ccco1` [Compound 7, 3-methyl-2-(3-fura-2-propenoyl)-quinoxaline] belongs 338 µg/mL (≈ 1280 µM).

Still in this experiment, the particulars now being: broth dilution, 24 h.
Take “2-(3-phenyl-2-propenyl) -3-methylquinoxaline [Compound 5a]”: the “MIC values Aeromonas hydrophila” value is over 500 µg/mL.

The subject of a further experiment is Escherichia coli ATCC25922. The experiment is described as above. In kind it is cell-based. The settings on record: Escherichia coli, ATCC25922; broth dilution, 24 h; read-out: MIC values Escherichia coli ATCC25922. Here is the method:
as §1, §5
Turning to `Cc1c(C(=O)/C=C/c2ccc(Cl)cc2)[n+]([O-])c2ccccc2[n+]1[O-]` [Compound 3g], the minimum inhibitory concentration (MIC) was over 500 µg/mL.
For the compound `Cc1nc2ccccc2nc1C(=O)/C=C/c1cccc(O)c1` [Compound 5b], the minimum inhibitory concentration (MIC) is over 500 µg/mL.
Regarding `Cc1nc2ccccc2nc1C(=O)/C=C/c1ccco1` [Compound 7, 3-methyl-2-(3-fura-2-propenoyl)-quinoxaline], the minimum inhibitory concentration (MIC) was over 500 µg/mL.

The same experiment, now with this note: broth dilution, 24 h.
On to “2-(3-phenyl-2-propenyl) -3-methylquinoxaline [Compound 5a]”, for which the “MIC values Escherichia coli ATCC25922” value is over 500 µg/mL.

By IC50 is commonly meant the point on the concentration scale where inhibition reaches its midpoint. In general, MIC refers to the lowest concentration that inhibits growth of the organism.
